Reference: paper PMC7140522, “The Pyrazolo[3,4-d]pyrimidine Derivative, SCO-201, Reverses Multidrug Resistance Mediated by ABCG2/BCRP” (Cells, 2020)
Read-outs that look alike come from different tables or passages of the source.

Experiments:
[1] = target: CYP2C8 (Homo sapiens, UniProt P10632); test: biochemical
[2] = test system: CYP3A; test: CYP induction in human hepatocytes, CYP3A enzyme activity; assay type: in vitro ADME
Procedure: The following procedure was carried out to test whether SCO-201 induces CYP1A, CYP2B6, and CYP3A activities in human hepatocytes. The procedure was designed in accordance with the FDA Guidance for Industry on Drug Interaction Studies (2006). Male and female human hepatocytes were thawed and plated into collagen-coated 96-well plates in serum-containing medium (plating medium) at a density of 0.7 × 10^6 viable cells/mL. The hepatocytes were cultured in a humidified incubator at 37 °C and 5% CO2. At 4 h post plating, human hepatocytes were washed once with fresh plating medium, followed by overnight incubation. At 24 h after plating, the plating medium was removed, and the hepatocytes were overlaid with extracellular matrix (ECM) (Sigma) or Matrigel (BD) in the serum-free medium (incubation medium), and then incubated for another 24 h. Incubation medium with 0.1% DMSO was used as the negative control. After the 2-day recovery period, the hepatocytes were treated with SCO-201 or a known inducer (Table S3) in the incubation medium on day 3 and day 4. The known inducer was tested as the positive control. On day 5, the medium was removed, and the cells were incubated with the respective CYP substrate in Krebs–Henseleit buffer (pH 7.4) containing 3 mM salicylamide for 30 min. The reaction was terminated by transferring the incubation mixture to an equal volume of acetonitrile/methanol mixture (1/1, v/v). Samples were mixed and centrifuged. Supernatants are used for HPLC-MS/MS analysis of the corresponding metabolite. Peak areas corresponding to the metabolite were recorded. The assay was rendered valid if enzyme activity with the positive control was at least twofold greater than negative control.
Cells 2020, 9, x FOR PEER REVIEW 9 of 9
Substrate (conc.) Metabolite Assay
Ethoxyresorufin (2 µM) Resorufin CYP1A
Bupropion (200 µM) Hydrozyl-bupropion CYP2B6
Midazolam (10 µM) 1-hydroxymidazolam CYP3A
139 Table S3: In vitro DMPK analysis: CYP induction.
140 were applied as inducers of the investigated CYPs.
144 References for supplementary materials
146 1. […]

[3] = target: T1, ABCG2 (BCRP) (Homo sapiens, UniProt Q9UNQ0); test: Hoechst 33342 accumulation assay in MDCK-II-BCRP cells; assay type: cell-based; conditions: MDCK cells overexpressing BCRP, steady-state fluorescence
T1 construct: expressed in transfected cells; host or cells: MDCK-II (canine kidney)

[4] = target: CYP3A (Homo sapiens, UniProt P08684); test: in vitro; conditions: both, pooled human liver microsomes, pH 7.4, probe testosterone
[5] = test system: HT29SN-38-RES cells; test: MDR reversal analysis with MTT assay, HT29SN-38-RES; assay type: cell-based, human; conditions: 72 hours, oxaliplatin is not a substrate for BCRP
Procedure: Control conditions consisted of full growth medium. All treatments were performed in triplicate.

[6] = target: CYP2C9 (Homo sapiens, UniProt P11712); test: CYP inhibition, CYP2C9; assay type: in vitro ADME; conditions: Human liver microsomes, diclofenac substrate
[7] = test system: CYP1A; test: CYP induction in human hepatocytes, CYP1A enzyme activity; assay type: in vitro ADME
[8] = target: CYP1A (Homo sapiens, UniProt P05177)
[9] = target: T2, BCRP (Homo sapiens, UniProt Q9UNQ0); test: […] ATPase assay with recombinant BCRP membranes; assay type: biochemical; parameters: purchased Solvo Biotechnology (via Sigma-Aldrich/Merck) SB-BCRP-M
T2 sequence (Q9UNQ0 1-655): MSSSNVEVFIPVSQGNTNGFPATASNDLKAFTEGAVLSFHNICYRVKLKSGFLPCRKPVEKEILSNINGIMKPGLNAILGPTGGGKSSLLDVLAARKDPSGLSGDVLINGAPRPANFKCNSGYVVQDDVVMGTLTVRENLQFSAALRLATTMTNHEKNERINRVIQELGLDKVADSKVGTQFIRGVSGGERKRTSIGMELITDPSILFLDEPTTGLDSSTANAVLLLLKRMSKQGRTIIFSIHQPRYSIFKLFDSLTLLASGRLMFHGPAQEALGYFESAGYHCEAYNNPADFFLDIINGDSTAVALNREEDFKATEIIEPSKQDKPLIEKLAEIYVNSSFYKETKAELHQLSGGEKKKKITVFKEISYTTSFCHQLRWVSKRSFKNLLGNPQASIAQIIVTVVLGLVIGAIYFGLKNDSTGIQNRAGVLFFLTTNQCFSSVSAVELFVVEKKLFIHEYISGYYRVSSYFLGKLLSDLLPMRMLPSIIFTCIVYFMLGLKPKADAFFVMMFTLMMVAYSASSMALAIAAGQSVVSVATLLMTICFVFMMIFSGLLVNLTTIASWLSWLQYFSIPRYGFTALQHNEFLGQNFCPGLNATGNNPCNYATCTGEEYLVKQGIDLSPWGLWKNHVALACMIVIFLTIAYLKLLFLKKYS
Procedure: After incubation with test compounds, MgATP was added to each well and incubated at 37 °C for 10 min. The ATPase reaction was stopped by the addition of 1x Developer solution at room temperature (RT). Two minutes after, 100 µL Blocker solution was added and the plate was incubated for 30 min at 37 °C for 30 min. The optical densities were measured at 620 nm using a PowerWave X Microplate spectrophotometer (BioTek, Bad Friedrichshall, Germany).

[10] = test system: CYP2B6; test: CYP induction in human hepatocytes, CYP2B6 mRNA; assay type: in vitro ADME; conditions: plated human hepatocytes
[11] = parameters: method as in PMID 26260222; conditions: mice; cited from earlier work
[12] = test system: CYP3A; test: CYP induction in human hepatocytes, CYP3A mRNA; assay type: in vitro ADME; conditions: plated human hepatocytes
[13] = Donor 1, read-out: Mean Fold Induction of mRNA at 1× 10^−4 M
[14] = Donor 2, read-out: Mean Fold Induction of mRNA at 1× 10^−4 M
[15] = Donor 3, read-out: Mean Fold Induction of mRNA at 1× 10^−4 M

CYP2C8, sequence (P10632 whole entry): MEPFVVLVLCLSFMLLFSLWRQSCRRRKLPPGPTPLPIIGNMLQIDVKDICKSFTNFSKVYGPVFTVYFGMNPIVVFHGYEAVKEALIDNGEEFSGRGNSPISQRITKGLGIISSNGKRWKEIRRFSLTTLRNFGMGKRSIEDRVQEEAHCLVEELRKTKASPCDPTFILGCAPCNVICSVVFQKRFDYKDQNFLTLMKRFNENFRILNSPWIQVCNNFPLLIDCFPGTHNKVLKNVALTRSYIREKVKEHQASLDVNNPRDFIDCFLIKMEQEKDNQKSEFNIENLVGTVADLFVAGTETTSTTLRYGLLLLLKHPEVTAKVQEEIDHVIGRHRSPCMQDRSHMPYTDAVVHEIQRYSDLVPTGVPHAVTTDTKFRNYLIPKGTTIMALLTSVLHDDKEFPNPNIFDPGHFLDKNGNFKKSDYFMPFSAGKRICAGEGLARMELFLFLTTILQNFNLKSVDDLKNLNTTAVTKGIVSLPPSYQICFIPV
CYP2C9, sequence (P11712 whole entry): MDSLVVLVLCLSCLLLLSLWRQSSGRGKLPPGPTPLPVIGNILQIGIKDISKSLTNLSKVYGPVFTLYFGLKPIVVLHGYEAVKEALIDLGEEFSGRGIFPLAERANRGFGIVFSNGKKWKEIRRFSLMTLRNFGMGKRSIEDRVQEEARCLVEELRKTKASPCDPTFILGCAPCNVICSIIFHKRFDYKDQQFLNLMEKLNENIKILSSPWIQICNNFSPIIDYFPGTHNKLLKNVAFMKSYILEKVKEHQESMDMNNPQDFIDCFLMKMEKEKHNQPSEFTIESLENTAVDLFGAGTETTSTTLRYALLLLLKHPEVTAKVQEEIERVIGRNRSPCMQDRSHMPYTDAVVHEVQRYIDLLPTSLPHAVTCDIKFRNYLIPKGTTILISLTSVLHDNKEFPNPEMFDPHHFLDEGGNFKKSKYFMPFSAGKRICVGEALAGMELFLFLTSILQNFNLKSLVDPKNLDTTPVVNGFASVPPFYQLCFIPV
CYP1A (Homo sapiens, UniProt P05177), sequence (P05177 whole entry): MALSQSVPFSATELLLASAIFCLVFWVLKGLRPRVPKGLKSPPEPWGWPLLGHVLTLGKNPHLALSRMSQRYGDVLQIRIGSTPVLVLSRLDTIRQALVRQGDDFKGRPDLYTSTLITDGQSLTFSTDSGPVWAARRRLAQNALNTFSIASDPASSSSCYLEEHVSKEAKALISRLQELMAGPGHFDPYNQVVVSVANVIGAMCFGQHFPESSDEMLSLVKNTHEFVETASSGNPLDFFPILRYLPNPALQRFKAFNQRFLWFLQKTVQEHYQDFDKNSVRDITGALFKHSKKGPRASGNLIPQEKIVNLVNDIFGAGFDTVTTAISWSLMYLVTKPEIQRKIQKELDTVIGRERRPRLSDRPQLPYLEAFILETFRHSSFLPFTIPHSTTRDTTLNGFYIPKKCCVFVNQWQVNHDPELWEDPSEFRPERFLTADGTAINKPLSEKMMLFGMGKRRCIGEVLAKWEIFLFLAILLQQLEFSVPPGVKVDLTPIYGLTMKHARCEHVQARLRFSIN
CYP3A (Homo sapiens, UniProt P08684), sequence (P08684 2-503): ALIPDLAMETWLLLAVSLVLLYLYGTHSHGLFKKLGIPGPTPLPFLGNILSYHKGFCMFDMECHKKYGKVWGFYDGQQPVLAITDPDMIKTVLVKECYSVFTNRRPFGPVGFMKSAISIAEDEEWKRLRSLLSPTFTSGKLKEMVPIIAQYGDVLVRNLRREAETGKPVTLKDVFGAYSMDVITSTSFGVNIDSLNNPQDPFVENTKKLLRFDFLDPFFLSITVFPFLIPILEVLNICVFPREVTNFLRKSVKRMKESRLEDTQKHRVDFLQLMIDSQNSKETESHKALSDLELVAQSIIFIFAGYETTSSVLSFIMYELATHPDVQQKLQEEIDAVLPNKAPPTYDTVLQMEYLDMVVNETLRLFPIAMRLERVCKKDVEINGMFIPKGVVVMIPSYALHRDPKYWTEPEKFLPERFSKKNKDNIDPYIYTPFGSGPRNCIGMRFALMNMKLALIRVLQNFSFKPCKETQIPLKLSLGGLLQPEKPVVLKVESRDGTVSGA

IC50 [1]: > 100 µM
Mean Fold Enzyme Activity Induction at 1 × 10^−4 M ([2]; Donor 1): 1.3
Mean Fold Enzyme Activity Induction at 1 × 10^−4 M ([2]; Donor 2): 2.0
Mean Fold Enzyme Activity Induction at 1 × 10^−4 M ([2]; Donor 3): 0.4
IC50 [3]: 0.175 µM
IC50 at 10 min [4]: > 100 µM
IC50 [6]: > 100 µM
Mean Fold Enzyme Activity Induction at 1 × 10^−4 M ([7]; Donor 1): 1
Mean Fold Enzyme Activity Induction at 1 × 10^−4 M ([7]; Donor 2): 0.7
Mean Fold Enzyme Activity Induction at 1 × 10^−4 M ([7]; Donor 3): 0.7
IC50 [8]: > 100 µM
ATPase activity of BCRP, sulfasalazine-stimulated ([9]; SCO-201 added to sulfasalazine-stimulated BCRP): decreased in a dose-dependent manner
ATPase activity of BCRP, basal ([9]; in the absence of sulfasalazine): decreased dose-dependently
SN-38-stimulated ATPase activity of BCRP ([9]; in the presence of 0.5 µM or 1.5 µM SCO-201): shifted downwards
fold induction at 2 days [10, 13]: 0.17
fold induction at 2 days [10, 14]: 0.52
fold induction at 2 days [10, 15]: 0.45
fold induction at 2 days [12, 13]: 0.25
fold induction at 2 days [12, 14]: 0.25
fold induction at 2 days [12, 15]: 0.32
SMILES: Nc1nc(-c2ccccc2)nc2[nH]nc(Nc3ccc(C(F)(F)F)cc3)c12 [SCO-201]
combinatorial effect with oxaliplatin on cell viability [5]: no added effects
oral activity [11]: orally active
